This note sets out measurements from ChEMBL document CHEMBL1149962, “Structural and stereochemical requirements of time-dependent inactivators of the interleukin-1 converting enzyme” (Bioorg Med Chem Lett, 1995).

The structures appear in SMILES notation. Bounds are passed on as bounds.

The first assay deals with T1, Caspase-1 (Homo sapiens) (UniProt P29466).
T1 sequence (whole entry): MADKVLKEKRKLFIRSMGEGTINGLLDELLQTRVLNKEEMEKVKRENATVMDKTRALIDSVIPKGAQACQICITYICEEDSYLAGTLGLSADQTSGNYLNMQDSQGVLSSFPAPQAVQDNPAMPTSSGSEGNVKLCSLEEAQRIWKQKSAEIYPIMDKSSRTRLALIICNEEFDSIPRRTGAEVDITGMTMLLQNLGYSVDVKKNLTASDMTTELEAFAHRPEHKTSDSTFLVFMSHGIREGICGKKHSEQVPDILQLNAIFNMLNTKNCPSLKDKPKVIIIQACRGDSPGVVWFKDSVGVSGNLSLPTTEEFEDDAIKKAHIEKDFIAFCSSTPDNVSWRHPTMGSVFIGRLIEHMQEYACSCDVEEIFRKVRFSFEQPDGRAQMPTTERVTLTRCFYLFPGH
Description: k obs/[I] against Interleukin-1-beta Converting enzyme (ICE) was determined.
Regarding `O=C(O)CC[C@H](NC(=O)OCc1ccccc1)C(=O)COC(=O)c1c(Cl)cccc1Cl`, the k obs / 1 is < 1000 M⁻¹ s⁻¹.

For another assay, the target named is T2, Caspase-1 (Homo sapiens, UniProt P29466).
T2 sequence (P29466 whole entry): T1 sequence (whole entry)
Description: Binding affinity against IL-1 beta converting enzyme.
The Ki is the dissociation constant of the complex between target and ligand, obtained from inhibition or displacement. Lower therefore signals higher affinity. `CC(C)[C@H](NC(=O)OCc1ccccc1)C(=O)N[C@@H](C)C(=O)N[C@H](C=O)CC(=O)O` returned a Ki of 15 nM.

As to `CC(C)[C@H](NC(=O)OCc1ccccc1)C(=O)N[C@@H](C)C(=O)N[C@@H](C=O)CC(=O)O`, the Ki is 15 nM.

A further assay addresses T1, Caspase-1 (Homo sapiens). The experiment in a line: Inhibition of IL-1 beta converting enzyme.
As to `C[C@H](C(=O)O)[C@H](NC(=O)OCc1ccccc1)C(=O)COC(=O)c1c(Cl)cccc1Cl`, the k obs / 1 is < 1000 M⁻¹ s⁻¹. Still for that read-out and setting: as for `O=C(O)C[C@H](NC(=O)OCc1ccccc1)C(=O)COC(=O)c1c(Cl)cccc1Cl`, the figure is 7400 M⁻¹ s⁻¹; as for `COC(=O)N[C@@H](Cc1c[nH]cn1)C(=O)N[C@@H](CC(=O)O)C(=O)COC(=O)c1c(Cl)cccc1Cl`, 2200 M⁻¹ s⁻¹; as for `O=C(N[C@@H](Cc1nnn[nH]1)C(=O)COC(=O)c1c(Cl)cccc1Cl)OCc1ccccc1`, < 1000 M⁻¹ s⁻¹. Regarding `O=C(O)C[C@H](OC(=O)OCc1ccccc1)C(=O)COC(=O)c1c(Cl)cccc1Cl`, the k obs / 1 is < 1000 M⁻¹ s⁻¹. On to `O=C(O)C[C@@H](C(=O)COC(=O)c1c(Cl)cccc1Cl)C(=O)NCCc1ccccc1`, for which the k obs / 1 is < 1000 M⁻¹ s⁻¹. `C[C@H](NC(=O)[C@@H](C)NC(=O)OCc1ccccc1)C(=O)N[C@@H](CC(=O)O)C(=O)COC(=O)c1c(Cl)cccc1Cl`: the k obs / 1 was 10000 M⁻¹ s⁻¹. Same read-out and setting: as for `COC(=O)N[C@@H](Cc1cccs1)C(=O)N[C@@H](CC(=O)O)C(=O)COC(=O)c1c(Cl)cccc1Cl`, the figure is 2500 M⁻¹ s⁻¹; as for `CN(C(=O)OCc1ccccc1)[C@@H](CC(=O)O)C(=O)COC(=O)c1c(Cl)cccc1Cl`, < 1000 M⁻¹ s⁻¹. As for `C[C@H](NC(=O)OCc1ccccc1)C(=O)N[C@@H](C)C(=O)N[C@@H](CC(=O)O)C(=O)COC(=O)c1c(Cl)cccc1Cl`, the k obs / 1 came out at 116000 M⁻¹ s⁻¹. On the same count and under the same terms, the value for `O=C(O)C[C@@H](CC(=O)COC(=O)c1c(Cl)cccc1Cl)NC(=O)OCc1ccccc1` was < 1000 M⁻¹ s⁻¹; that for `COC(=O)N[C@H](C(=O)N[C@@H](CC(=O)O)C(=O)COC(=O)c1c(Cl)cccc1Cl)C(C)C` was 4900 M⁻¹ s⁻¹; that for `COC(=O)NCC(=O)N[C@@H](CC(=O)O)C(=O)COC(=O)c1c(Cl)cccc1Cl` was < 1000 M⁻¹ s⁻¹. On the same count and under the same terms, as for `O=C(O)C[C@@H](CCOC(=O)c1c(Cl)cccc1Cl)NC(=O)OCc1ccccc1`, the figure is < 1000 M⁻¹ s⁻¹. `COC(=O)N[C@@H](C)C(=O)N[C@@H](CC(=O)O)C(=O)COC(=O)c1c(Cl)cccc1Cl` had a k obs / 1 of 7000 M⁻¹ s⁻¹. Compound `CC(C)[C@H](NC(=O)OCc1ccccc1)C(=O)N[C@@H](CC(=O)O)C(=O)COC(=O)c1c(Cl)cccc1Cl` displayed a k obs / 1 of 41000 M⁻¹ s⁻¹. On the same count and under the same terms, as for `C[C@@H](C(=O)O)[C@H](NC(=O)OCc1ccccc1)C(=O)COC(=O)c1c(Cl)cccc1Cl`, the figure is < 1000 M⁻¹ s⁻¹. For the compound `O=C(O)CCC[C@H](NC(=O)OCc1ccccc1)C(=O)COC(=O)c1c(Cl)cccc1Cl`, the k obs / 1 was < 1000 M⁻¹ s⁻¹. On the same count and under the same terms, as for `O=C(O)C[C@H](NC(=O)OCc1ccccc1)C(=O)CSc1c(Cl)cccc1Cl`, the figure is < 1000 M⁻¹ s⁻¹. On the same count and under the same terms, the value for `C[C@H](NC(=O)[C@H](Cc1ccccc1)NC(=O)OCc1ccccc1)C(=O)N[C@@H](CC(=O)O)C(=O)COC(=O)c1c(Cl)cccc1Cl` was 233000 M⁻¹ s⁻¹; that for `C[C@@H](NC(=O)OCc1ccccc1)C(=O)N[C@@H](CC(=O)O)C(=O)COC(=O)c1c(Cl)cccc1Cl` was < 1000 M⁻¹ s⁻¹; that for `O=C(O)C[C@H](NC(=O)OCc1ccccc1)C(O)COC(=O)c1c(Cl)cccc1Cl` (stereo partly specified) was < 1000 M⁻¹ s⁻¹. In the case of `O=C(O)C[C@H](NC(=O)OCc1ccccc1)C(=O)COc1c(Cl)cccc1Cl`, the k obs / 1 was < 1000 M⁻¹ s⁻¹.
